Measured values taken from patent publication US20240408119A1, “DELIVERY OF THERAPEUTIC ALKALOID COMPOUNDS” (priority 2022, published 2024).
Read-outs that look alike come from different tables or passages of the source.

Legend:
in vivo [1] = format: in vivo, mouse; details: 001 (metabolite) in brain after 323 IV 2 mg/kg
Method: Total fifteen male mice were used in this study with n=3 mice/time point with sparse sampling study design. Animals were administered through intravenous route with solution formulation of 323 at 2 mg/kg dose.
(§1) The extraction procedure for plasma/brain samples and the spiked plasma/brain calibration standards were identical (PMSF Stabilized Plasma and Brain used for Preparation of calibration standards): A 20 μL of study sample plasma/brain or spiked plasma/brain calibration standard was added to individual pre-labeled micro-centrifuge tubes followed by 200 μL of internal standard prepared in acetonitrile (Rosuvastatin+Cetrizine, 50 ng/mL) was added except for blank, where 200 μL of acetonitrile was added. Samples were vortexed for 5 minutes. Samples were centrifuged for 10 minutes at a speed of 4000 rpm at 4° C. Following centrifugation, 200 μL of clear supernatant was transferred in 96 well plates and analyzed using LC-MS/MS.
(§2) Brain samples were diluted (1-part of tissue: 2-part of buffer) and homogenized. The homogenate was submitted for bioanalysis and the concentrations (ng/mL) received were corrected with dilution factor (3×) and the final reported concentrations were represented in ng/g.
The plasma and brain concentration-time data of 323 and 001 were used for the pharmacokinetic analysis.
LLOQ: 323: 1.02 ng/mL for plasma and brain 001: 1.01 ng/mL for plasma and brain

[2] = in vivo; cited from earlier work
[3] = Pharmacokinetics of 358, single IV in male C57BL/6 mice; format: in vivo, mouse
Method: Total fifteen male mice were used in this study with n=3 mice/time point with sparse sampling study design. Animals were administered through intravenous route with solution formulation of 358 at 2 mg/kg dose.
The extraction procedure for plasma/brain samples and the spiked plasma/brain calibration standards were identical (PMSF Stabilized Plasma and Brain used for Preparation of calibration standards):
as §1, with “A” for “The extraction procedure for plasma/brain samples and the spiked plasma/brain calibration standards were identical (PMSF Stabilized Plasma and Brain used for Preparation of calibration standards): A”
Note: Brain samples were diluted (1-part of tissue: 2-part of buffer) and homogenized. The homogenate was submitted for bioanalysis and the concentrations (ng/mL) received were corrected with dilution factor (3×) and the final reported concentrations were represented in ng/g.
The plasma and brain concentration-time data of 358 and 001 were used for the pharmacokinetic analysis.
LLOQ: 358: 1.02 ng/mL for plasma and brain 001: 1.01 ng/mL for plasma and brain

in vivo [4] = format: in vivo, mouse; details: 001 (metabolite) in brain after 321 IV 2 mg/kg
Method: Total fifteen male mice were used in this study with n=3 mice/time point with sparse sampling study design. Animals were administered through intravenous route with solution formulation of 321 at 2 mg/kg dose.
as §1, with “(Rosuvastatin,” for “(Rosuvastatin+Cetrizine,”
as §2
The plasma and brain concentration-time data of 321 and 001 were used for the pharmacokinetic analysis.
LLOQ: 321: 1.02 ng/mL for plasma and brain 001: 1.01 ng/mL for plasma and brain

[5] = Metabolic Stability in Human Hepatocytes; format: in vitro ADME; details: cryopreserved human hepatocytes, 37° C.
Method: A 2.5 uL aliquot of 100 μM test compound was incubated with 247.5 uL of cryopreserved hepatocytes suspended in serum-free incubation medium at 5×10^5 viable cells/mL. The mixture was incubated at 37° C. and shaken at 500 rpm for the designated time points (0.5, 15, 30, 60, 90, or 120 min). At each time point, 25 μL aliquot of incubation mixture was transferred to 125 μL of cold acetonitrile containing internal standard, followed by centrifugation for 30 min at 3,220 g. 100 μL of supernatant was mixed with 100 μL of distilled water for analysis by LC-MS/MS. Peak areas were determined from extracted ion chromatograms and in vitro half-life (t1/2) was determined from the concentration vs time regression slope, in vitro t1/2=0.693/k. Conversion of the in vitro t1/2 (in min) into the in vitro intrinsic clearance (in vitro CLint, in μL/min/10^6 cells) is done using: in vitro CLint=kV/N.

[6] = Hydrolysis Assay - Condition 2 (DI Water); format: physicochemical; details: 25° C., 0.5 mM
Method: 50 μL of compound (10 mM) in DMSO was diluted into 950 μL of DI water to a final concentration of 0.5 mM. The hydrolysis kinetics were conducted at 25° C. and measured by LCMS at a certain time interval.
(§3) The corresponding LCMS chromatogram were recorded and the conversions were calculated by integration of each peak.
(§4) • 1) LCMS spectra were obtained using Agilent 1200G1956A or SHIMADZU LCMS-2020. Standard LCMS conditions were as follows (running time 1.55 minutes): • Acidic condition: Mobile Phase A: 0.0375% TFA in water (v/v). Mobile Phase B: 0.01875% TFA in acetonitrile (v/v); Column: Kinetex EVO C18 30*2.1 mm, 5 μm. • Basic condition: Mobile Phase A: 0.025% NH3·H2O in water (v/v). Mobile Phase B: Acetonitrile; Column: Kinetex EVO C18 2.1×30 mm, 5 μm. • 2) Conversion (%)=peak area 1/(peak area 1+peak area 2)*100%, peak area 1 is the integration of hydrolyzed product, peak area 2 is the integration of starting material.

[7] = Hydrolysis Assay - Condition 1 (SGF); format: physicochemical; details: SGF with pepsin pH 1.5, 37° C., 0.5 mM
Method: 50 μL of compound (10 mM) in DMSO was diluted into 950 μL of Simulated Gastric Fluid (SGF) with pepsin (pH 1.5) to a final concentration of 0.5 mM. The hydrolysis kinetics were conducted at 37° C. and measured by LCMS at a certain time interval.
as §3, §4

[8] = format: in vitro ADME, mouse; details: prodrug remaining, 5 μM, 37° C.
Method: (§5) Each test was carried out in duplicate for each time point; 0 min, 15 min, 30 min, 60 min, 120, 240 min. […]

[9] = format: in vitro ADME, human; details: prodrug remaining, 5 μM, 37° C.
Method: as §5

[10] = fermentation, exposure to light, exposure to heat, aqueous medium; cited from earlier work

**Q.** For COc1ccc([C@@]23CCC(=O)C[C@@H]2N(C)CC3)cc1OC (racemic) [Compound 001, (3aS,7aS)-3a-(3,4-dimethoxyphenyl)-1-methyl-2,3,4,5,7,7a-hexahydroindol-6-one, reference compound], which AUClast (in vivo [1]) is on record?
**A.** 411.95 ng·h/g

**Q.** What about the half-life in plasma [2] of the same compound?
**A.** less than 2 hours

**Q.** What about the AUClast ([3]; 001 (metabolite) in brain after 358 IV 2 mg/kg) of the same compound?
**A.** 190.88 ng·h/g

**Q.** What about the AUClast (in vivo [4]) of the same compound?
**A.** 12.72 ng·h/g

**Q.** What about the half-life [5] of the same compound?
**A.** 17 min

**Q.** And the hepatocyte CLint [5]?
**A.** 40 µL/min/1e6 cells

**Q.** For COc1ccc([C@@]23CCC(OC(=O)OC(C)(C)C)=C[C@@H]2N(C)CC3)cc1OC [Compound 358, [(3aS,7aS)-3a-(3,4-dimethoxyphenyl)-1-methyl-3,4,5,7a-tetrahydro-2H-indol-6-yl] tert-butyl carbonate], which “Condition 2 Conversion (%)” value ([6]; 1 min) is on record?
**A.** 0%

**Q.** What about the “Condition 2 Conversion (%)” value ([6]; 5 min) of the same compound?
**A.** 0%

**Q.** What about the “Condition 2 Conversion (%)” value ([6]; 30 min) of the same compound?
**A.** 0%

**Q.** And the “Condition 2 Conversion (%)” value ([6]; 1 h)?
**A.** 0%

**Q.** What about the “Condition 2 Conversion (%)” value ([6]; 4 h) of the same compound?
**A.** 83.46%

**Q.** What about the “Condition 2 Conversion (%)” value ([6]; 24 h) of the same compound?
**A.** 100%

**Q.** And the “Condition 1 Conversion (%)” value ([7]; 1 min)?
**A.** 0%

**Q.** What about the “Condition 1 Conversion (%)” value ([7]; 5 min) of the same compound?
**A.** 0%

**Q.** And the “Condition 1 Conversion (%)” value ([7]; 30 min)?
**A.** 0%

**Q.** And the “Condition 1 Conversion (%)” value ([7]; 1 h)?
**A.** 5%

**Q.** What about the “Condition 1 Conversion (%)” value ([7]; 4 h) of the same compound?
**A.** 100%

**Q.** And the “Condition 1 Conversion (%)” value ([7]; 24 h)?
**A.** 100%

**Q.** And the “Mouse Plasma Prodrug (%)” value ([8]; 0 min)?
**A.** 100%

**Q.** What about the “Mouse Plasma Prodrug (%)” value ([8]; 15 min) of the same compound?
**A.** 14.8%

**Q.** And the “Mouse Plasma Prodrug (%)” value ([8]; 30 min)?
**A.** 10.3%

**Q.** And the “Mouse Plasma Prodrug (%)” value ([8]; 60 min)?
**A.** 5.4%

**Q.** And the “Mouse Plasma Prodrug (%)” value ([8]; 120 min)?
**A.** 0.0%

**Q.** What about the “Mouse Plasma Prodrug (%)” value ([8]; 240 min) of the same compound?
**A.** 0.0%

**Q.** What about the “brain concentrations quantifiable up to” value ([3]; 358 after 358 IV 2 mg/kg) of the same compound?
**A.** ≤ 0.08 h

**Q.** And the concentration at 0.08 h ([3]; male, C57BL/6, mouse, brain, 358 after 358 IV 2 mg/kg, read-out: Brain concentrations (mean))?
**A.** 18.3 ng/g

**Q.** And the “plasma concentrations quantifiable up to” value ([3]; male, C57BL/6, mouse, in vivo, iv, 2 mg/kg)?
**A.** up to 0.25 h

**Q.** What about the concentration at 0.08 h ([3]; male, C57BL/6, mouse, plasma, 358 after 358 IV 2 mg/kg, read-out: Plasma concentrations (mean)) of the same compound?
**A.** 14.3 ng/mL

**Q.** What about the concentration at 0.25 h ([3]; male, C57BL/6, mouse, plasma, 358 after 358 IV 2 mg/kg, 0.25 h, average of two values, read-out: Plasma concentrations (mean)) of the same compound?
**A.** 1.51 ng/mL

**Q.** And the “Human Plasma Prodrug (%)” value ([9]; 0 min)?
**A.** 100%

**Q.** And the “Human Plasma Prodrug (%)” value ([9]; 15 min)?
**A.** 75.4%

**Q.** And the “Human Plasma Prodrug (%)” value ([9]; 30 min)?
**A.** 58.1%

**Q.** What about the “Human Plasma Prodrug (%)” value ([9]; 60 min) of the same compound?
**A.** 35.5%

**Q.** What about the “Human Plasma Prodrug (%)” value ([9]; 120 min) of the same compound?
**A.** 11.7%

**Q.** What about the “Human Plasma Prodrug (%)” value ([9]; 240 min) of the same compound?
**A.** 0.7%

**Q.** For COc1ccc([C@@]23CCC(=O)C[C@@H]2N(C)CC3)cc1OC [Mesembrine, 3a-(3,4-dimethoxyphenyl)-octahydro-1-methyl-6H-indol-6-one], which stability [10] is on record?
**A.** unstable
